Measurements reported in ChEMBL document CHEMBL1201862, “PubChem BioAssay data set” (2004).
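Each compound was tested at five concentrations against cells in 96-well plates for 48 hours. Abbreviation: GI50, concentration required for 50% inhibition of growth.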 The source made the active and inactive calls. No stated cut-off is given here; in the data, active = GI50 up to about 1.1 µM and inactive = higher.

Key:
Assay in all cases: NCI anticancer screen, dose series, 48 h
A498 = tested on: A498
NCI-H522 = tested on: NCI-H522
SK-MEL-5 = tested on: SK-MEL-5
UO-31 = tested on: UO-31
A549 = tested on: A549
SF-295 = tested on: SF-295
SR = tested on: SR
SK-MEL-2 = tested on: SK-MEL-2
T47D = tested on: T47D
HCT-116 = tested on: HCT-116
TK-10 = tested on: TK-10
BT-549 = tested on: BT-549
HT-29 = tested on: HT-29
Malme-3M = tested on: Malme-3M
MDA-MB-231 = tested on: MDA-MB-231
KM12 = tested on: KM12
OVCAR-4 = tested on: OVCAR-4
LOX IMVI = tested on: LOX IMVI
SNB-19 = tested on: SNB-19
Hs-578T = tested on: Hs-578T
UACC-257 = tested on: UACC-257
NCI-H23 = tested on: NCI-H23
U-251 = tested on: U-251
HL-60 = tested on: HL-60
DU-145 = tested on: DU-145
SK-MEL-28 = tested on: SK-MEL-28
IGROV-1 = tested on: IGROV-1
SF-268 = tested on: SF-268
MDA-MB-435 = tested on: MDA-MB-435
EKVX = tested on: EKVX
SK-OV-3 = tested on: SK-OV-3
HCC 2998 = tested on: HCC 2998
M14 = tested on: M14
CCRF-CEM = tested on: CCRF-CEM
HCT-15 = tested on: HCT-15
786-0 = tested on: 786-0
RPMI-8226 = tested on: RPMI-8226
MCF7 = tested on: MCF7
MDA-N = tested on: MDA-N
SNB-75 = tested on: SNB-75
SF-539 = tested on: SF-539
CAKI-1 = tested on: CAKI-1
COLO 205 = tested on: COLO 205
HOP-62 = tested on: HOP-62
K562 = tested on: K562
NCI-H460 = tested on: NCI-H460
NCI/ADR-RES = tested on: NCI/ADR-RES
MOLT-4 = tested on: MOLT-4
PC-3 = tested on: PC-3
OVCAR-5 = tested on: OVCAR-5
OVCAR-3 = tested on: OVCAR-3
RXF 393 = tested on: RXF 393
ACHN = tested on: ACHN
OVCAR-8 = tested on: OVCAR-8
NCI-H226 = tested on: NCI-H226
SN12C = tested on: SN12C
UACC-62 = tested on: UACC-62
SW-620 = tested on: SW-620
HOP-92 = tested on: HOP-92

Compound: CC(C)(C)COS(=O)OCC(C)(C)C
- GI50 (A498): > 100 µM (inactive)
- GI50 (NCI-H522): > 100 µM (inactive)
- GI50 (SK-MEL-5): > 100 µM (inactive)
- GI50 (UO-31): > 100 µM (inactive)
- GI50 (A549): > 100 µM (inactive)
- GI50 (SF-295): > 100 µM (inactive)
- GI50 (SR): > 100 µM (inactive)
- GI50 (SK-MEL-2): > 100 µM (inactive)
- GI50 (T47D): > 100 µM (inactive)
- GI50 (HCT-116): > 100 µM (inactive)
- GI50 (TK-10): > 100 µM (inactive)
- GI50 (BT-549): > 100 µM (inactive)
- GI50 (HT-29): > 100 µM (inactive)
- GI50 (Malme-3M): > 100 µM (inactive)
- GI50 (MDA-MB-231): > 100 µM (inactive)
- GI50 (KM12): > 100 µM (inactive)
- GI50 (OVCAR-4): > 100 µM (inactive)
- GI50 (LOX IMVI): > 100 µM (inactive)
- GI50 (SNB-19): > 100 µM (inactive)
- GI50 (Hs-578T): > 100 µM (inactive)
- GI50 (UACC-257): > 100 µM (inactive)
- GI50 (NCI-H23): > 100 µM (inactive)
- GI50 (U-251): > 100 µM (inactive)
- GI50 (HL-60): > 100 µM (inactive)
- GI50 (DU-145): > 100 µM (inactive)
- GI50 (SK-MEL-28): > 100 µM (inactive)
- GI50 (IGROV-1): > 100 µM (inactive)
- GI50 (SF-268): > 100 µM (inactive)
- GI50 (MDA-MB-435): > 100 µM (inactive)
- GI50 (EKVX): > 100 µM (inactive)
- GI50 (SK-OV-3): > 100 µM (inactive)
- GI50 (HCC 2998): > 100 µM (inactive)
- GI50 (M14): > 100 µM (inactive)
- GI50 (CCRF-CEM): > 100 µM (inactive)
- GI50 (HCT-15): > 100 µM
- GI50 (786-0): > 100 µM (inactive)
- GI50 (RPMI-8226): > 100 µM (inactive)
- GI50 (MCF7): > 100 µM (inactive)
- GI50 (MDA-N): > 100 µM (inactive)
- GI50 (SNB-75): > 100 µM (inactive)
- GI50 (SF-539): > 100 µM (inactive)
- GI50 (CAKI-1): > 100 µM (inactive)
- GI50 (COLO 205): > 100 µM (inactive)
- GI50 (HOP-62): > 100 µM (inactive)
- GI50 (K562): > 100 µM (inactive)
- GI50 (NCI-H460): > 100 µM (inactive)
- GI50 (NCI/ADR-RES): > 100 µM (inactive)
- GI50 (MOLT-4): > 100 µM (inactive)
- GI50 (PC-3): > 100 µM (inactive)
- GI50 (OVCAR-5): > 100 µM (inactive)
- GI50 (OVCAR-3): > 100 µM (inactive)
- GI50 (RXF 393): > 100 µM (inactive)
- GI50 (ACHN): > 100 µM (inactive)
- GI50 (OVCAR-8): > 100 µM (inactive)
- GI50 (NCI-H226): > 100 µM (inactive)
- GI50 (SN12C): > 100 µM (inactive)
- GI50 (UACC-62): > 100 µM (inactive)
- GI50 (SW-620): > 100 µM (inactive)
- GI50 (HOP-92): > 100 µM (inactive)

Compound: COc1ccc(C(OCC2OC(n3cc(C)c(=O)[nH]c3=O)CC2n2cc(Cn3cc(Br)c(=O)[nH]c3=O)nn2)(c2ccccc2)c2ccccc2)cc1 (configuration not stated)
- GI50 (A498): > 100 µM (inactive)
- GI50 (NCI-H522): > 100 µM (inactive)
- GI50 (SK-MEL-5): > 100 µM (inactive)
- GI50 (UO-31): > 100 µM (inactive)
- GI50 (A549): > 100 µM (inactive)
- GI50 (SF-295): > 100 µM (inactive)
- GI50 (SR): > 100 µM (inactive)
- GI50 (SK-MEL-2): > 100 µM (inactive)
- GI50 (T47D): > 100 µM (inactive)
- GI50 (HCT-116): > 100 µM (inactive)
- GI50 (TK-10): > 100 µM (inactive)
- GI50 (BT-549): > 100 µM (inactive)
- GI50 (HT-29): > 100 µM (inactive)
- GI50 (Malme-3M): > 100 µM (inactive)
- GI50 (MDA-MB-231): > 100 µM (inactive)
- GI50 (KM12): 50.9 µM (inactive)
- GI50 (OVCAR-4): > 100 µM (inactive)
- GI50 (LOX IMVI): > 100 µM (inactive)
- GI50 (SNB-19): > 100 µM (inactive)
- GI50 (Hs-578T): > 100 µM (inactive)
- GI50 (UACC-257): > 100 µM (inactive)
- GI50 (NCI-H23): > 100 µM (inactive)
- GI50 (U-251): 66.5 µM (inactive)
- GI50 (HL-60): 2.07 µM (inactive)
- GI50 (DU-145): > 100 µM (inactive)
- GI50 (SK-MEL-28): > 100 µM (inactive)
- GI50 (IGROV-1): 38.5 µM (inactive)
- GI50 (SF-268): > 100 µM (inactive)
- GI50 (MDA-MB-435): 6.55 µM (inactive)
- GI50 (EKVX): > 100 µM (inactive)
- GI50 (SK-OV-3): > 100 µM (inactive)
- GI50 (HCC 2998): > 100 µM (inactive)
- GI50 (M14): > 100 µM (inactive)
- GI50 (CCRF-CEM): 2.53 µM (inactive)
- GI50 (HCT-15): > 100 µM
- GI50 (786-0): > 100 µM (inactive)
- GI50 (RPMI-8226): 5.05 µM (inactive)
- GI50 (MCF7): 16 µM (inactive)
- GI50 (MDA-N): 21 µM (inactive)
- GI50 (SNB-75): > 100 µM (inactive)
- GI50 (SF-539): > 100 µM (inactive)
- GI50 (CAKI-1): > 100 µM (inactive)
- GI50 (COLO 205): > 100 µM (inactive)
- GI50 (HOP-62): > 100 µM (inactive)
- GI50 (NCI/ADR-RES): > 100 µM (inactive)
- GI50 (MOLT-4): 4.36 µM (inactive)
- GI50 (PC-3): 32.5 µM (inactive)
- GI50 (OVCAR-5): > 100 µM (inactive)
- GI50 (OVCAR-3): > 100 µM (inactive)
- GI50 (RXF 393): > 100 µM (inactive)
- GI50 (ACHN): > 100 µM (inactive)
- GI50 (OVCAR-8): > 100 µM (inactive)
- GI50 (NCI-H226): > 100 µM (inactive)
- GI50 (SN12C): > 100 µM (inactive)
- GI50 (UACC-62): > 100 µM (inactive)
- GI50 (SW-620): > 100 µM (inactive)
- GI50 (HOP-92): > 100 µM (inactive)

Compound: O=C(CC(C(=O)c1ccco1)c1cccs1)c1cccs1 (configuration not stated)
- GI50 (A498): 96.2 µM (inactive)
- GI50 (NCI-H522): 41.9 µM (inactive)
- GI50 (SK-MEL-5): 32.4 µM (inactive)
- GI50 (UO-31): 30.7 µM (inactive)
- GI50 (A549): 41.7 µM (inactive)
- GI50 (SF-295): 38.8 µM (inactive)
- GI50 (SR): 34.6 µM (inactive)
- GI50 (SK-MEL-2): 37.4 µM (inactive)
- GI50 (T47D): 28.2 µM (inactive)
- GI50 (HCT-116): 32.9 µM (inactive)
- GI50 (TK-10): > 100 µM (inactive)
- GI50 (BT-549): 46.5 µM (inactive)
- GI50 (HT-29): 37.9 µM (inactive)
- GI50 (Malme-3M): 96.2 µM (inactive)
- GI50 (MDA-MB-231): > 100 µM (inactive)
- GI50 (KM12): 40.6 µM (inactive)
- GI50 (OVCAR-4): 36 µM (inactive)
- GI50 (LOX IMVI): 37.3 µM (inactive)
- GI50 (SNB-19): > 100 µM (inactive)
- GI50 (Hs-578T): 49.9 µM (inactive)
- GI50 (UACC-257): 24.8 µM (inactive)
- GI50 (NCI-H23): 58.5 µM (inactive)
- GI50 (U-251): 67.5 µM (inactive)
- GI50 (HL-60): 27.2 µM (inactive)
- GI50 (DU-145): > 100 µM (inactive)
- GI50 (SK-MEL-28): 42.7 µM (inactive)
- GI50 (IGROV-1): 65.6 µM (inactive)
- GI50 (SF-268): 57.9 µM (inactive)
- GI50 (MDA-MB-435): 35.9 µM (inactive)
- GI50 (EKVX): 24.9 µM (inactive)
- GI50 (SK-OV-3): 87.1 µM (inactive)
- GI50 (HCC 2998): 49.2 µM (inactive)
- GI50 (M14): 46.6 µM (inactive)
- GI50 (HCT-15): 50.2 µM
- GI50 (786-0): > 100 µM (inactive)
- GI50 (RPMI-8226): 55.7 µM (inactive)
- GI50 (MCF7): 46.8 µM (inactive)
- GI50 (MDA-N): 37.6 µM (inactive)
- GI50 (SNB-75): 44.4 µM (inactive)
- GI50 (SF-539): > 100 µM (inactive)
- GI50 (CAKI-1): > 100 µM (inactive)
- GI50 (COLO 205): 51.9 µM (inactive)
- GI50 (HOP-62): 87.7 µM (inactive)
- GI50 (NCI-H460): 80.5 µM (inactive)
- GI50 (NCI/ADR-RES): 36.1 µM (inactive)
- GI50 (PC-3): 42.5 µM (inactive)
- GI50 (OVCAR-5): 61.4 µM (inactive)
- GI50 (OVCAR-3): 40.7 µM (inactive)
- GI50 (RXF 393): 51.3 µM (inactive)
- GI50 (ACHN): 58.7 µM (inactive)
- GI50 (OVCAR-8): 44.7 µM (inactive)
- GI50 (NCI-H226): > 100 µM (inactive)
- GI50 (SN12C): 66.8 µM (inactive)
- GI50 (UACC-62): 36.3 µM (inactive)
- GI50 (SW-620): 94.8 µM (inactive)
- GI50 (HOP-92): 59.4 µM (inactive)
